Key:
[1] = Stability in cell medium (DMEM) by HPLC; assay type: physicochemical; conditions: for Detected compound 2 in medium / Detected free 1 in the sample of 2 / Detected free retinoic acid in the sample of 2: sample of 2 in DMEM
Protocol: The stability of compound 2 in medium (DMEM) was investigated for the indicated times (Table S1). For the preparation of the calibration samples, stock solutions of the test compounds (1 mg /mL) in MeCN were initially made. The sample was diluted to 0.2 mg/mL in a mixture of MeCN/H2O (4:1), whereof 20 µL were taken and injected into the column. For HPLC analysis, a Prontosil 120-5-C18 ace EPS 5 µm column was applied, and MeCN/H2O + 0.1 % glacial acetic acid was used as eluent. Chromatography was run from 7030 to 9010 within 3 […]
Table S1. Stability of compound 2 in medium.
Sample Detected Compounds (in µM)

[2] = test system: retinoid-responsive elements (RARE); assay: RA reporter assay, F9 RARE-lacZ reporter cells; assay type: cell-based; conditions: 0.3-5.0 µM, 20 h
Excerpt: More typical of retinoic acid is its contribution to cell differentiation during vertebrate embryonic development by interacting with nuclear receptors, which bind to specific retinoid-responsive elements (RARE) within the promoters of subordinate genes, activating their transcription. To verify that retinoate 2 also binds to RARE, we used a reporter assay with F9 teratocarcinoma cells featuring a RARE located within the cis-acting regulatory sequences of the human retinoic acid receptor alpha gene and immediately upstream of the E. coli lacZ genes, which thus acquire retinoid responsivity. LacZ expression in cells treated with various concentrations of 2 was then quantitated by densitometric analysis of β-galactosidase activity visualized by X-Gal staining.
The F9 embryonal carcinoma cell line, stably transfected with the 1.8 kb promoter sequence of RARb2 coupled to the lacZ gene, was used to measure active retinoids. The assay is appropriate for detection of all-trans RA but is able to detect other retinoid isomers as well. The F9 reporter cells were maintained in 10% FCS containing DMEM in the presence of 400 ug/mL G418. A day before the assay, F9 cell were seeded onto 24-well plates (100,000 cell/well). The cells were than treated with various concentrations of 2. […]

[3] = Reactivity test with glutathione (enone absorption); assay type: physicochemical; conditions: 200 µM compound, glutathione in PBS, 2 h, rt
Protocol: In a cell-free activity assay, the reaction of 1 and 2 with glutathione was measured by the decreasing absorption at 340 nm (enone group). Then, 2 µL of the substances (10 mM in DMSO) was mixed with 98 µL glutathione solution ([…] in PBS) in a 96-well plate. The absorption was measured at 340 nm every 30 s for 2 h at rt (Tecan F200). All experiments were performed at least four times.
Figure 1 Time-resolved measurement of the absorption at 340 nm (enone group) of 200 µM 1, 2 or solvent (DMSO) mixed with 6.5 mM glutathione in phosphate-buffered saline (PBS). Data are means ± SD of at least four independent measurements every 30 s.

[4] = test system: NE-4C neural stem cells; assay: Neuronal differentiation of NE-4C neural stem cells (β-tubulin III staining); assay type: cell-based, mouse
Protocol: NE-4C cells and their differentiated progeny neurons can be immunohistochemically distinguished by the presence of β-tubulin III only in the latter (Figure 3).
Astroglia cells grown on poly-L-lysine-coated glass cover slips were fixed with 4% paraformaldehyde in PBS for 20 min at room temperature and then permeabilized with Triton X-100 (0.1% v/v in PBS; 5 min). Nonspecific antibodies were blocked by incubation with 3% FBS in PBS (room temperature, 1 h). α-GFAP antibody (rabbit, DAKO) was used in a dilution of 1:2000 and was visualized by anti-rabbit IgG Alexa 594 (1:1000). DAPI (4′,6-diamidino-2-phenylindole) was used for nuclei staining. Fluorescence images were captured manually on a Zeiss Axiovert 200 M microscope fitted with 20- to 60-fold zoom and a Zeiss AxioCam MRm digital camera. Further applied antibodies were tubulin III (Sigma T5076), used at a dilution of 1:1000, and Annexin V. Cy3.18 (Sigma A4963).

Structure (SMILES): CC1=C(/C=C/C(C)=C/C=C/C(C)=C/C(=O)O[C@@H]2C3=C(C)C4(CC4)[C@@](C)(O)C(=O)C3=CC2(C)C)C(C)(C)CCC1 [Compound 2, illudin M retinoate]
- stability in cell medium ([1]; cell medium): high stability
- Detected compound 2 in medium ([1]; 0 h): 3.92 µM
- Detected free 1 in the sample of 2 ([1]; 0 h): < 0.01 µM
- Detected free retinoic acid in the sample of 2 ([1]; 0 h): < 0.01 µM
- Detected compound 2 in medium ([1]; 20 h): 3.98 µM
- Detected free 1 in the sample of 2 ([1]; 20 h): < 0.01 µM
- Detected free retinoic acid in the sample of 2 ([1]; 20 h): < 0.01 µM
- Detected compound 2 in medium ([1]; 48 h): 3.85 µM
- Detected free 1 in the sample of 2 ([1]; 48 h): < 0.01 µM
- Detected free retinoic acid in the sample of 2 ([1]; 48 h): < 0.01 µM
- Detected compound 2 in medium ([1]; 144 h): 3.94 µM
- Detected free 1 in the sample of 2 ([1]; 144 h): < 0.01 µM
- Detected free retinoic acid in the sample of 2 ([1]; 144 h): < 0.01 µM
- activation of F9 RARE-lacZ reporter cells (β-galactosidase, X-Gal staining) [2]: concentration-dependent activation
- fading of the enone band in the presence of glutathione [3]: stabilization of conjugate 2 compared with 1
- differentiation of NE-4C stem cells to neurons ([4]; 10 nM, β-tubulin III staining): did not elicit differentiation
- neuronal differentiation of NE-4C neural stem cells ([4]; concentrations as high as 1 µM): did not induce neuronal differentiation

Source: paper PMC9408991, “Antitumor Effects of a New Retinoate of the Fungal Cytotoxin Illudin M in Brain Tumor Models” (International Journal of Molecular Sciences, 2022)
